Counter-ions that a name gives are not always drawn. Like-named read-outs stand apart in the source and are kept apart here.
Key:
[1] = system: multi-drug resistant (MDR) human sarcoma cell line MES-SA/ADR; experiment: Inhibition of cell proliferation (GI50) in MES-SA/ADR cells; type: cell-based
Experimental: (§1) T-47D, HT29, H1299, MX-1 and MDAMB435 cells were grown and harvested as in Example 29. An aliquot of 90 μL of cells (4.4×10^4 cells/mL) was added to a well of a 96-well microtiter plate containing 5 μL of a 10% DMSO in RPMI-1640 media solution containing 10 nM to 100 μM of N-(4-methoxyphenyl)-N,2-dimethylthieno[2,3-d]pyrimidin-4-amine (1 nM to 10 μM final) or related compounds. An aliquot of […] of cells was added to a well of a 96-well microtiter plate containing 5 μL of a 10% DMSO in RPMI-1640 media solution without compound as the control sample for maximal cell proliferation (LMax). The samples were mixed by agitation and then incubated at 37° C. for 48 h in a 5% CO2-95% humidity incubator. After incubation, the samples were removed from the incubator and 25 μL of CellTiter-Glo™ reagent (Promega) was added. The samples were mixed by agitation and incubated at room temperature for 10-15 min. Plates were then read using a luminescent plate reader (Model SPECTRAfluor Plus, Tecan) to give Ltest values.
(§2) The samples were mixed by agitation and then incubated at 37° C. for 0.5 h in a 5% CO2-95% humidity incubator. After incubation, the samples were removed from the incubator and 25 μL of CellTiter-Glo™ reagent (Promega) was added. The samples were mixed by agitation and incubated at […] room temperature in a 5% CO2-95% humidity incubator. […] was read as above, (Lstart) defining luminescence for initial cell number used as baseline in GI50 determinations. ps Calculation:
(§3) GI50 (dose for 50% inhibition of cell proliferation) is the concentration where [(LTest-LStart)/(LMax-LStart)]=0.5.
(§4) Several compounds were tested in other cancer cell lines, including human sarcoma cell line MES-SA and multi-drug resistant (MDR) human sarcoma cell line MES-SA/ADR, murine leukemia cell line P388 and multi-drug resistant (MDR) murine leukemia cell line P388ADR, and the data are summarized in Table IV.

[2] = system: human hepatocellular carcinoma cell line SNU398; experiment: Caspase cascade activation (DEVD-R110 fluorogenic substrate) in SNU398 cells; type: cell-based
Experimental: (§5) Human breast cancer cell line T-47D, human lung cancer cell line H1299 and human hepatocellular carcinoma cell line SNU398 were grown according to media component mixtures designated by American Type Culture Collection+10% FCS (Invitrogen Corporation), in a 5% CO2-95% humidity incubator at 37° C. T-47D and H1299 cells were maintained at a cell density between 50 and 80% confluency at a cell density of 0.1 to 0.6×10^6 cells/mL. Cells were harvested at 600×g and resuspended at 0.65×10^6 cells/mL into appropriate media+10% FCS. An aliquot of 22.5 μL of cells was added to a well of a 384-well microtiter plate containing 2.5 μL of a 10% DMSO in RPMI-1640 media solution containing 0.16 to 100 μM of N-(4-methoxyphenyl)-N, 2-dimethylthieno[3,2-d]pyrimidin-4-amine or other test compound (0.016 to 10 μM final). An aliquot of 22.5 μL of cells was added to a well of a 384-well microtiter plate containing 2.5 μL of a 10 % DMSO in RPMI-1640 media solution without test compound as the control sample. The samples were mixed by agitation and then incubated at 37° C. for 24 h or 48 h in a 5% CO2-95% humidity incubator. After incubation, the samples were removed from the incubator and 25 μL of a solution containing 14 μM of N-(Ac-DEVD)-N′-ethoxycarbonyl-R110 (SEQ ID No.:1) fluorogenic substrate (Cytovia, Inc.; WO99/18856), 20% sucrose (Sigma), 20 mM DTT (Sigma), 200 mM NaCI (Sigma), 40 mM Na PIPES buffer pH 7.2 (Sigma), and 500 μg/mL lysolecithin (Calbiochem) was added. The samples were mixed by agitation and incubated at room temperature. Using a fluorescent plate reader (Model SPECTRAfluor Plus, Tecan), an initial reading (T=0) was made approximately 1-2 min after addition of the substrate solution, employing excitation at 485 nm and emission at 530 nm, to determine the background fluorescence of the control sample. After the 3 h incubation, the samples were read for fluorescence as above (T=3 h).
(§6) The Relative Fluorescence Unit values (RFU) were used to calculate the sample readings as follows: RFU(T=3h)-Control RFU(T=0)=Net RFU(T=3h)
(§7) The activity of caspase cascade activation was determined by the ratio of the net RFU value for N-(4-methoxyphenyl)-N,2-dimethylthieno[3,2-d]pyrimidin-4-amine or other test compound to that of control samples. The EC50 (nM) was determined by a sigmoidal dose-response calculation (Prism 3.0, GraphPad Software Inc.).
Several compounds were also tested in other cancer cells lines (48 h assay), including human hepatocellular carcinoma cell line SNU398, human colon carcinoma cell line […], human B cell lymphoblastoid cell line Ramos, human Burkitt's lymphoma cell line Namalwa, and cervical cancer cell line HeLa, and the data are summarized in Table II.

[3] = system: human sarcoma cell line MES-SA; experiment: Inhibition of cell proliferation (GI50) in MES-SA cells; type: cell-based
Experimental: as §1, §2, §3, §4

[4] = system: human breast cancer cell line T-47D; experiment: Caspase cascade activation (DEVD-R110 fluorogenic substrate) in T-47D cells; type: cell-based; settings: 24 h, read-out: Caspase Activation Potency EC50 (nM) (24 h) T-47D
Experimental: as §5, §6, §7

[5] = system: multi-drug resistant (MDR) murine leukemia cell line P388ADR; experiment: Inhibition of cell proliferation (GI50) in P388/ADR cells; type: cell-based
Experimental: as §1, §2, §3, §4

[6] = system: murine leukemia cell line P388; experiment: Inhibition of cell proliferation (GI50) in P388 cells; type: cell-based
Experimental: as §1, §2, §3, §4

[7] = system: human lung cancer cell line H1299; experiment: Caspase cascade activation (DEVD-R110 fluorogenic substrate) in H1299 cells; type: cell-based; settings: read-out: Caspase Activation Potency EC50 (nM) (24 h) H1299
Experimental: as §5, §6, §7

MX-1 cells = experiment: Inhibition of cell proliferation (GI50, CellTiter-Glo) in MX-1 cells; type: cell-based; settings: MX1, 48 h incubation, read-out: GI50 in Cancer Cells GI50 (nM) MX1
Experimental: as §1, §2, §3

T-47D cells = experiment: Inhibition of cell proliferation (GI50, CellTiter-Glo) in T-47D cells; type: cell-based, human; settings: T47D, 48 h incubation, read-out: GI50 in Cancer Cells GI50 (nM) T47D
Experimental: as §1, §2, §3

H1299 cells = experiment: Inhibition of cell proliferation (GI50, CellTiter-Glo) in H1299 cells; type: cell-based, human; settings: H1299, 48 h incubation, read-out: GI50 in Cancer Cells GI50 (nM) H1299
Experimental: as §1, §2, §3

HT29 cells = experiment: Inhibition of cell proliferation (GI50, CellTiter-Glo) in HT29 cells; type: cell-based; settings: HT29, 48 h incubation, read-out: GI50 in Cancer Cells GI50 (nM) HT29
Experimental: as §1, §2, §3

MDAMB435 cells = experiment: Inhibition of cell proliferation (GI50, CellTiter-Glo) in MDAMB435 cells; type: cell-based; settings: MDAMB435, 48 h incubation, read-out: GI50 in Cancer Cells GI50 (nM) MDAMB435
Experimental: as §1, §2, §3

[8] = system: human B cell lymphoblastoid cell line Ramos; experiment: Caspase cascade activation in Ramos cells; type: cell-based; settings: 48 h, read-out: Caspase Activation Potency EC50 (nM) (48 h) Ramos
Experimental: (§8) Human breast cancer cell line T-47D, human lung cancer cell line H1299 and human hepatocellular carcinoma cell line SNU398 were grown according to media component mixtures designated by American Type Culture Collection+10% FCS (Invitrogen Corporation), in a 5% CO2-95% humidity incubator at 37° C. T-47D and H1299 cells were maintained at a cell density between 50 and 80% confluency at a cell density of 0.1 to 0.6×10^6 cells/mL. Cells were harvested at 600×g and resuspended at 0.65×10^6 cells/mL into appropriate media+10% FCS. […] Using a fluorescent plate reader (Model SPECTRAfluor Plus, Tecan), an initial reading (T=0) was made approximately 1-2 min after addition of the substrate solution, employing excitation at 485 nm and emission at 530 nm, to determine the background fluorescence of the control sample. After the 3 h incubation, the samples were read for fluorescence as above (T=3 h).
as §6
as §7, with “Inc.). […]” for “Inc.).”

[9] = system: human Burkitt's lymphoma cell line Namalwa; experiment: Caspase cascade activation in Namalwa cells; type: cell-based; settings: Burkitts lymphoma cell, 48 h, read-out: Caspase Activation Potency EC50 (nM) (48 h) Namalwa
Experimental: as §8, §6
as §7, with “Inc.). […]” for “Inc.).”

HCT116 = experiment: Caspase cascade activation in HCT116 cells; type: cell-based; settings: Homo sapiens, HCT-116; HCT116, 48 h; read-out: Caspase Activation Potency EC50 (nM) (48 h) HCT116
Experimental: as §8, §6
as §7, with “Inc.). […]” for “Inc.).”

[10] = system: cervical cancer cell line HeLa; experiment: Caspase cascade activation in HeLa cells; type: cell-based; settings: Homo sapiens, 48 h, read-out: Caspase Activation Potency EC50 (nM) (48 h) HeLa
Experimental: as §8, §6
as §7, with “Inc.). […]” for “Inc.).”

[11] = system: human lymphoma cell line Raji; experiment: Caspase cascade activation in Raji cells; type: cell-based; settings: 48 h, read-out: Caspase Activation Potency EC50 (nM) (48 h) Raji
Experimental: as §8, §6
as §7, with “Inc.). […]” for “Inc.).”

[12] = Homo sapiens, SNU-398, SNU398, 24 h, read-out: Caspase Activation Potency EC50 (nM) (24 h) SNU398
[13] = SNU398, 24 h, read-out: Caspase Activation Potency EC50 (nM) (24 h) SNU398
[14] = Homo sapiens, SNU-398, SNU398, 48 h, read-out: Caspase Activation Potency EC50 (nM) (48 h) SNU398

GI50 in Multi-Cancer Cells EC50 (nM) MES-SA/ADR [1] | EC50 [2, 12] | GI50 in Multi-Cancer Cells EC50 (nM) MES-SA [3] | EC50 ([4]; Homo sapiens, T47D) | GI50 in Multi-Cancer Cells EC50 (nM) P388/ADR [5] | GI50 in Multi-Cancer Cells EC50 (nM) P388 [6] | EC50 ([7]; Homo sapiens, NCI-H1299, 24 h) | EC50 [4] | EC50 ([7]; H1299, 24 h) | SMILES | other results
13 nM | 28 nM | 12 nM | 14 nM | 16 nM | 15 nM | 24 nM |  |  | COc1ccc(N(C)c2nc(C)nc3ccsc23)cc1 [Example 1, N-(4-Methoxyphenyl)-N,2-dimethylthieno[3,2-d]pyrimidin-4-amine] | 
 |  |  |  |  |  |  | 9 nM | 15 nM | COc1ccc(N(C)c2nc(C)nc3sccc23)cc1 [Example 2, N-(4-Methoxyphenyl)-N,2-dimethylthieno[2,3-d]pyrimidin-4-amine] | GI50 (MX-1 cells; Homo sapiens): 5 nM; GI50 (T-47D cells; Homo sapiens): 5 nM; GI50 (H1299 cells; Homo sapiens, NCI-H1299): 9 nM; GI50 (HT29 cells; Homo sapiens, HT-29): 26 nM; GI50 (MDAMB435 cells; Homo sapiens, MDA-MB-435): 2 nM
 |  |  |  |  |  |  | 4 nM | 9 nM | COc1ccc(N(C)c2nc(C)nc3scc(C)c23)cc1 [Example 4, N-(4-Methoxyphenyl)-N,2,5-trimethylthieno[2,3-d]pyrnmidin-4-amine] | EC50 [2, 13]: 4 nM; GI50 (MX-1 cells): 5 nM; GI50 (T-47D cells): 5 nM; GI50 (H1299 cells): 2 nM; GI50 (HT29 cells): 5 nM; GI50 (MDAMB435 cells): 5 nM
5 nM | 12 nM | 3 nM | 8 nM | 4 nM | 7 nM | 14 nM |  |  | COc1ccc(N(C)c2nc(C)nc3sccc23)cc1.Cl [Example 5, N-(4-Methoxyphenyl)-N,2-dimethylthieno[2,3-d]pyrimidin-4-amine hydrochloride] | EC50 [2, 14]: 9 nM; EC50 [8]: 27 nM; EC50 [9]: 20 nM; EC50 (HCT116): 27 nM; EC50 [10]: 8 nM; EC50 [11]: 20 nM
100 nM | 123 nM | 58 nM | 45 nM | 105 nM | 74 nM | 56 nM |  |  | COc1ccc(N(C)c2ncnc3ccsc23)cc1 [Example 6, N-(4-Methoxyphenyl)-N-methylthieno[3,2-d]pyrimidin-4-amine] | GI50 (MX-1 cells; Homo sapiens): 40 nM; GI50 (T-47D cells; Homo sapiens): 4 nM; GI50 (H1299 cells; Homo sapiens, NCI-H1299): 38 nM; GI50 (HT29 cells; Homo sapiens, HT-29): 40 nM; GI50 (MDAMB435 cells; Homo sapiens, MDA-MB-435): 16 nM
 |  |  |  |  |  |  | 19 nM | 41 nM | COc1ccc(N(C)c2ncnc3sccc23)cc1 [Example 9, N-(4-Methoxyphenyl)-N-methylthieno[2,3-d]pynimidin-4-amine] | EC50 [2, 13]: 57 nM
 | 15 nM |  | 12 nM |  |  | 19 nM |  |  | COc1ccc(N(C)c2ncnc3scc(C)c23)cc1 [Example 12, N-(4-Methoxyphenyl)-N,5-dimethylthieno[2,3-d]pyrimidin-4-amine] | 
 | 81 nM |  | 36 nM |  |  | 28 nM |  |  | COc1ccc(N(C)c2nc(SC)nc3ccsc23)cc1 [Example 20, N-(4-Methoxyphenyl)-N-methyl-2-(methylthio)thieno[3,2-d]pyrimidin-4-amine hydrochloride] | 
 | 30 nM |  | 19 nM |  |  | 51 nM |  |  | COc1ccc(N(C)c2ncnc3sc(C)c(C)c23)cc1 [Example 23, N-(4-Methoxyphenyl)-N,5,6-trimethylthieno[2,3-d]pyrimidin-4-amine] | 
 | 27 nM |  | 17 nM |  |  | 59 nM |  |  | COc1ccc(N(C)c2nc(C)nc3sc(C)c(C)c23)cc1 [Example 24, N-(4-Methoxyphenyl)-N,2,5,6-tetramethylthieno[2,3-d]pyrimidin-4-amine] | EC50 [2, 14]: 16 nM; EC50 (HCT116): 15 nM; EC50 [10]: 30 nM

Source: patent publication US20070213305A1, “N-alkyl-N-aryl-thienopyrimidin-4-amines and analogs as activators of caspases and inducers of apoptosis and the use thereof” (Cytovia, Inc., priority 2005, published 2007)
